The record followed here is ChEMBL document CHEMBL3507680, “University of Dundee, Gates Library screen for HepG2 cell viability”.

This data set is described as follows: Human HepG2 cell viability assay in 384 well format. The class given is toxicity, cell-based. Further details: dose 125 nL, time 70.5 hour; cytotoxicity at 70.5 h: concentration not given beside the values. As to conditions: HepG2 cells, read-out: Inhibition.
For the compound `CCC(CC)C(=O)N1CCN(Cc2nc3ccccc3c(=O)[nH]2)CC1`, the cytotoxicity at 70.5 h was -14.5%. In the case of `Cc1cc(C)nc(C2CCN(C(=O)CCn3ncc4ccccc43)C2)n1` (configuration not stated) it was 2.78%; in that of `Cn1nccc1-c1cc(C2CCN(S(C)(=O)=O)CC2)ccn1`, -7.68%.

Consider `COc1ccccc1Oc1cncc(C2CCCN(C)C2)n1` (configuration not stated), for which the cytotoxicity at 70.5 h is -5.97%. Consider `CN(C)c1cc(C2CCCN(C(=O)Cn3cc(Cl)cn3)C2)ccn1` (configuration not stated), for which the cytotoxicity at 70.5 h is -4.03%. In the case of `COCC(=O)N1CCC(c2csc(NC(C)=O)n2)CC1` it was -8.01%; in that of `CC(=O)Nc1nc(C2CN(C(=O)C3CCC3)C2)cs1`, -7.1%. In the case of `CC1CCC(NCCNC(=O)c2cccs2)CC1` (configuration not stated) it was -7.09%. The same measure for `Cc1cc(O)nc(C2CN(CCO)CCO2)n1` (configuration not stated): 8.3%; for `O=C(c1cc[nH]n1)N1CCCC1c1cc(Nc2ccccn2)n[nH]1` (configuration not stated): -11.2%; for `CN(C)[C@@H]1CN(C(=O)c2ccc3ccccc3n2)C[C@H]1O`: -7.72%. On to `Cc1cccc(Nc2cccc(C3CCCN(Cc4ncc[nH]4)C3)n2)n1` (configuration not stated), for which the cytotoxicity at 70.5 h was -8.27%. In the case of `CNc1cc(C2CN(Cc3coc(C)n3)CCO2)nc(C)n1` (configuration not stated) it was -8.75%. In the case of `O=C(CCN1CCc2ccccc21)N1CC(C(=O)N2CCOCC2)C1` it was -5.25%; in that of `O=S(=O)(N1CCOCC1)N1CCCC1Cn1cccn1` (configuration not stated), -11.1%. Regarding `O=C(c1cncs1)N1CCCC1c1ccn[nH]1` (configuration not stated), the cytotoxicity at 70.5 h was -3.39%. Take `Cc1noc(C)c1-c1ccc(C2CCCN2C(=O)c2cccnn2)nc1` (configuration not stated): the cytotoxicity at 70.5 h was 19.1%.

As for `Cc1ncncc1C(=O)N1CCOC(C)(C(=O)NC2CCCC2)C1` (configuration not stated), the cytotoxicity at 70.5 h is -1.33%. The same measure for `Cc1cccc(CC2CCCN(C(=O)Cc3csc(C)n3)C2)n1` (configuration not stated): -10.5%; for `COCC(=O)N1CC(c2ccnc(Nc3ccc(C)cn3)n2)C1`: -10.9%. The same measure for `Cc1ccc(C2CN(C(=O)c3ccn(C)c(=O)c3)CCO2)nc1` (configuration not stated): -7.64%; for `Cc1cc(N2CCC(c3n[nH]c4nccnc34)C2)ncn1` (configuration not stated): 19.2%. In the case of `Cc1ccc(Nc2nccc(C3CCN(CC(N)=O)C3)n2)nc1` (configuration not stated) it was -8.32%; in that of `CS(=O)(=O)c1cn[nH]c1C1CCCCN1C(=O)c1cnccn1` (configuration not stated), -5.18%; in that of `Cn1ccc(C(=O)N2CCCC2c2[nH]ncc2C(N)=O)n1` (configuration not stated), -4.61%.

For the compound `CC(=O)N1CCCC(Cc2cnc(-n3ccnc3)cn2)C1` (configuration not stated), the cytotoxicity at 70.5 h is -5.34%. `CC(C)NC(=O)C1(Cc2ccccc2-c2cccs2)CCNC1` (configuration not stated): the cytotoxicity at 70.5 h was -3.31%.

As to `CC(=O)N1CCC(Cc2cnc(-n3ccnc3)cn2)CC1`, the cytotoxicity at 70.5 h is -6.47%. The same measure for `CNc1cncc(C2CCCN2S(=O)(=O)c2cccc(F)c2)n1` (configuration not stated): -2.79%; for `Cc1cccc2nc(C(=O)N3CCCC[C@]4(C)NC(=O)CCC[C@H]34)cn12`: -5.3%. The same measure for `Cc1ccc2nc(C(=O)N3CCCC[C@]4(C)NC(=O)CCC[C@H]34)cn2c1`: -4.04%; for `CN(C(=O)c1ccnn1C)[C@@H]1CCC[C@@H](Oc2ccccc2)[C@@H]1O`: -3.62%.

Consider `Cc1ccccc1CC(=O)N[C@@H]1CCC[C@@H](N2CCNC(=O)C2)[C@@H]1O`, for which the cytotoxicity at 70.5 h was -6.12%. Regarding `CN(C(=O)c1cn(C)cn1)[C@@H]1CCC[C@@H](Oc2ccccc2)[C@@H]1O`, the cytotoxicity at 70.5 h is -2.57%. In the case of `CC(=O)N1CCC(c2cnc(-c3c(C)n[nH]c3C)cn2)CC1` it was -3.69%. As to `CNC(=O)c1cn[nH]c1C1(C)CCCN(Cc2nccn2C(C)C)C1` (configuration not stated), the cytotoxicity at 70.5 h is -2.7%. In the case of `NC(=O)CN1CCCC(Cc2ccc(N)nn2)C1` (configuration not stated) it was 36.2%; in that of `Cn1ccc(C(=O)N2CCOC(c3ccccn3)C2)cc1=O` (configuration not stated), 6.02%; in that of `COc1cccc(-c2ccnc(C3CCNCC3)c2)c1`, 7.37%. In the case of `CCc1ccccc1Nc1noc2c1CN(C(=O)CCOC)CC2` it was 18.8%; in that of `CCc1ccccc1Nc1noc2c1CN(C(=O)C1CCCO1)CC2` (configuration not stated), -3.46%. The same measure for `COc1cccc(CC(=O)N2CCCC2c2nc(C)c(C)c(O)n2)c1` (configuration not stated): -2.86%. Regarding `Cc1ccc(CN(C)C(=O)NCC(C)(C)CCS(C)(=O)=O)s1`, the cytotoxicity at 70.5 h is -1.02%.

As to `Cc1nc(Cn2cncc(Br)c2=O)no1`, the cytotoxicity at 70.5 h was 6.27%. On to `O=C(c1cccc(F)c1)N(CCCO)S(=O)(=O)c1cccs1`, for which the cytotoxicity at 70.5 h was -8.04%. The same measure for `CCN(C)S(=O)(=O)N1CCCC(c2nc(-c3ccccc3)c[nH]2)C1` (configuration not stated): 14.3%. Turning to `COC(=O)CCN(C)C(=O)c1ccc(-c2cscn2)cc1`, the cytotoxicity at 70.5 h is 4.45%.

`O=C(CCCc1nc2ccccc2[nH]1)N1CCCC1c1ccncc1` (configuration not stated): the cytotoxicity at 70.5 h is 32.6%. In the case of `O=c1cc(CN(Cc2ccco2)C2CC2)nc2ccc(Br)cn12` it was -3.54%.

Regarding `CCn1cnnc1CNC(=O)NC(c1ccccc1)C1CCCC1` (configuration not stated), the cytotoxicity at 70.5 h was -7.51%.

Turning to `O=c1cc(CN(CCO)C2CC2)nc2ccc(Cl)cn12`, the cytotoxicity at 70.5 h was found to be 14.2%. In the case of `Cc1noc(C2CCN(C(=O)c3cc(Cl)c(Cl)n3C)CC2)n1` it was -2.97%; in that of `CCOCCC(=O)NCCNc1nccc(C(F)(F)F)n1`, 2.23%. The same measure for `CS(=O)(=O)N1CCCC(c2nc(-c3ccccc3)c[nH]2)C1` (configuration not stated): -7.34%; for `CCOc1cncc(NCCc2nnc3ccccn23)n1`: -4.67%.

Turning to `O=C(Cc1ccon1)Nc1cncc(Br)c1O`, the cytotoxicity at 70.5 h was -0.318%. With `CN(C)C(=O)c1ccc(-c2cscn2)cc1`, the cytotoxicity at 70.5 h was 1.52%. The same measure for `O=C(Cc1ccn[nH]1)Nc1cncc(Br)c1O`: -2.7%; for `O=S(=O)(c1ccccc1Cl)N1CCCC(c2ncc[nH]2)C1` (configuration not stated): -3.85%. On to `O=C(Nc1cncc(Br)c1O)c1ccon1`, for which the cytotoxicity at 70.5 h is -2.33%. In the case of `CCc1nnc(CNc2ccc(CC(=O)N3CCSCC3)cc2)o1` it was 13.8%; in that of `Cc1noc(C2CCCN(C(=O)c3cc(Cl)cn3C)C2)n1` (configuration not stated), -4.77%. For `COc1ccccc1OCc1nc(C(C)C)no1`, the cytotoxicity at 70.5 h is 12.8%. In the case of `CCc1noc(CNc2cccc(C(=O)N3CCSCC3)c2)n1` it was 0.659%; in that of `CC(NCCCn1ccnc1)c1ccc(N2CCCS2(=O)=O)cc1` (configuration not stated), 31%. In the case of `CC(NC(=O)CN1CCN(Cc2ccc(Br)s2)CC1)c1ccccc1` (configuration not stated) it was 25.3%; in that of `O=S(=O)(N1CCCC1)N1CC[C@H](c2ccccc2)[C@H]2NCCCC[C@H]21`, -2.6%. For `CCN(CC)S(=O)(=O)N1CC[C@H](c2ccccc2)[C@H]2NCCCC[C@H]21`, the cytotoxicity at 70.5 h was -3.25%. The same measure for `c1cn(-c2cncc(C3CCNCC3)n2)cn1`: -6.9%; for `COc1ccc(-c2ccnc(C3CCNCC3)c2)cc1`: -5.12%. In the case of `O=C(c1cc2c(s1)CCCC2)N1CCc2nc(C3CCCN3)ncc2C1` (configuration not stated) it was 6.76%. The same measure for `COc1ccccc1OCCc1cc(C2CCNC2)n[nH]1` (configuration not stated): -6.36%.
